Where two headings read alike, the source gives them in different places.
Tests used:
all tissues types = details: cited from earlier work
[1] = test system: Human Umbilical Vessel Endothelial cells (HUVEC); details: cited from earlier work
rabbit fetus = details: cited from earlier work
[2] = 25 G IV bolus over 3-5 minutes, cited from earlier work
[3] = test system: severely growth restricted fetus (fetal IUGR); assay: Clinical case study: severe fetal IUGR treated with maternal IV hypertonic D-glucose bolus; assay type: in vivo, human
Description: At the outset, it is relevant to describe a clinical case study of successfully treating a severe case of fetal IUGR, during the years 1983-84, by the Author Inventor as a practicing ob/gyn. in India, as it is the basis for this writing of significant depth that aided the author inventor decades later to fully comprehend what was once successfully treated, but was only incompletely understood at that time.
They were well nourished and was from good socioeconomic background, and there were no obvious etiological factors, that could be accounted for the identified fetal IUGR. After monitoring the growth of the fetus by assessing fundal height (a clinical norm of fetal measure in the past) for 3-4 more weeks, it was confirmed that the uterine size was not progressing, and that the patient had severely growth restricted fetus. […] The patient had more frequent pre-natal follow ups, and the treatment was diligently continued with increments, as also the patient was admirably cooperative. Nearing term, they were delivered by elective cesarean section.
The observed fetal growth restriction was undoubtedly severe, but with mere hypertonic intravenous D-glucose treatment and no other (except for standard doses of prenatal vitamins and minerals), the […] delivered an AGA baby, who obviously had caught up with standard growth curve, as though glucose supplement alone, and nothing else was needed.

For NCCCC[C@@H](N)C(=O)O [D-lysine], the neovascular growth (all tissues types; all tissues types) is given as “induce neovascular growth”.
In the case of NCCCC[C@H](N)C(=O)O [monomeric lysine, lysine], the “biomass (cell population) expansion” value (all tissues types; compared to other physicochemical means) is given as “expand biomass (cell population) at the least possible time”.
In the case of insulin, the CGMP accumulation [1] is listed as “increased” and the L-Arginine transport [1] is listed as “increased”.
In the case of O=C[C@H](O)[C@@H](O)[C@H](O)[C@H](O)CO [D-glucose], the “reversal of growth restriction” value (rabbit fetus; Flake et al, natural runt rabbit fetus, solutions alone or in combination) is given as “did not reverse growth restriction”, the fetal weight (rabbit fetus; Mulvihill et al 1985, pregnant rabbit models, transamniotic) is given as “increase in fetal weight” and the CGMP accumulation [1] is given as “increased”. For the same compound, the L-Arginine transport [1] was “increased”, the “blood glucose level (peak)” value ([2]; at 15 minutes) was 175 mg % and the blood glucose level ([2]; at 30 minutes) was 125 mg %. For the same compound, the blood glucose level ([2]; at 1 hour) was 75 mg %, the blood glucose level ([2]; during the second hour) was 70 mg % and the fetal growth response ([3]; 20% IV bolus 50 cc twice daily to the parent, observed in 2-3 weeks) was “undoubted and immediate catch up of fetal growth”. For the same compound, the “birth weight for gestational age” value ([3]; at delivery nearing term) was “appropriate for the gestational age (AGA)”, the “Apgar score of the baby” value ([3]; elective cesarean nearing term after continued treatment with increments) was 10 and the “adverse effects in the mother due to induced maternal hyperglycemia” value ([3]; throughout gestation) was “No adverse effects”.

From patent US9555052B2, “Intrauterine fetal growth restriction—the biochemical rationale of treatment modalities including extraperitoneal transamniotic fetal supplements” (priority 2003, dated 2017)
